PubChem BioAssay (NCI)
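Abbreviation: GI50, concentration required for 50% inhibition of growth. TGI denotes the concentration required for complete inhibition of growth.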

Tests used:
Test in all cases: inhibition of tumour cell growth, NCI panel, 384-well format
[1] = test system: OVCAR-3 ovarian
[2] = test system: SK-MEL-28 melanoma
[3] = test system: HCT-15 colon
[4] = test system: KM12 colon
[5] = test system: MCF7 breast
[6] = test system: LOX IMVI melanoma
[7] = test system: HCT-116 colon
[8] = test system: SN12C renal
[9] = test system: MDA-MB-435 melanoma
[10] = test system: OVCAR-8 ovarian
[11] = test system: 786-0 renal
[12] = test system: PC-3 prostate
[13] = test system: MDA-MB-468 breast
[14] = test system: HS 578T breast
[15] = test system: MOLT-4 leukemia
[16] = test system: A498 renal
[17] = test system: UACC-62 melanoma
[18] = test system: NCI-H226 lung
[19] = test system: U251 glioblastoma
[20] = test system: NCI/ADR-RES ovarian
[21] = test system: ACHN renal
[22] = test system: UO-31 renal
[23] = test system: SK-MEL-2 melanoma
[24] = test system: RXF 393 renal
[25] = test system: NCI-H23 lung
[26] = test system: MALME-3M melanoma
[27] = test system: SW-620 colon
[28] = test system: TK-10 renal
[29] = test system: M14 melanoma
[30] = test system: IGROV1 ovarian
[31] = test system: K-562 leukemia
[32] = test system: DU-145 prostate
[33] = test system: OVCAR-4 ovarian
[34] = test system: CAKI-1 renal
[35] = test system: HOP-92 NSCLC
[36] = test system: BT-549 breast
[37] = test system: RPMI-8226 leukemia
[38] = test system: A549 NSCLC
[39] = test system: SK-OV-3 ovarian
[40] = test system: NCI-H322M lung
[41] = test system: MDA-MB-231 breast
[42] = test system: UACC-257 melanoma
[43] = test system: OVCAR-5 ovarian
[44] = test system: HT29 colon
[45] = test system: NCI-H522 lung
[46] = test system: HOP-62 NSCLC
[47] = test system: EKVX NSCLC
[48] = test system: HL-60(TB) leukemia
[49] = test system: T-47D breast
[50] = test system: SR leukemia
[51] = test system: SF-539 CNS
[52] = test system: SK-MEL-5 melanoma
[53] = test system: NCI-H460 NSCLC
[54] = test system: HCC-2998 colon
[55] = test system: SNB-75 CNS
[56] = test system: SNB-19 CNS
[57] = test system: CCRF-CEM leukemia
[58] = test system: SF-295 CNS
[59] = test system: SF-268 CNS
[60] = test system: COLO 205 colon

CC/C(=C(\c1ccccc1)c1ccc(OCCN(C)C)cc1)c1ccccc1
GI50 [1]: 9.12 µM | TGI [1]: 21.3 µM | GI50 [2]: 5.35 µM | TGI [2]: 16.8 µM | GI50 [3]: 2.05 µM | TGI [3]: 3.96 µM | GI50 [4]: 3.27 µM | TGI [4]: 10.7 µM | GI50 [5]: 1.65 µM | TGI [5]: 7.98 µM | GI50 [6]: 4.94 µM | TGI [6]: 17 µM | GI50 [7]: 5.26 µM | TGI [7]: 17.5 µM | GI50 [8]: 13.6 µM | TGI [8]: 26.7 µM | GI50 [9]: 7.19 µM | TGI [9]: 19.5 µM | GI50 [10]: 11.5 µM | TGI [10]: 24 µM | GI50 [11]: 4.92 µM | TGI [11]: 15.7 µM | GI50 [12]: 4.18 µM | TGI [12]: 13.7 µM | GI50 [13]: 4.92 µM | TGI [13]: 16 µM | GI50 [14]: 14 µM | TGI [14]: 27.2 µM | GI50 [15]: 2.56 µM | TGI [15]: 6 µM | GI50 [16]: 4.05 µM | TGI [16]: 15 µM | GI50 [17]: 2.77 µM | TGI [17]: 7.86 µM | GI50 [18]: 7.96 µM | TGI [18]: 20.2 µM | GI50 [19]: 5.21 µM | TGI [19]: 16.2 µM | GI50 [20]: 12 µM | TGI [20]: 24.6 µM | GI50 [21]: 16.4 µM | TGI [21]: 30.3 µM | GI50 [22]: 14.9 µM | TGI [22]: 28.4 µM | GI50 [23]: 4.1 µM | TGI [23]: 15.8 µM | GI50 [24]: 3.43 µM | TGI [24]: 8.75 µM | GI50 [25]: 10.6 µM | TGI [25]: 22.6 µM | GI50 [26]: 1.99 µM | TGI [26]: 3.66 µM | GI50 [27]: 9.21 µM | TGI [27]: 21.6 µM | GI50 [28]: 12.7 µM | TGI [28]: 25.5 µM | GI50 [29]: 1.89 µM | TGI [29]: 3.51 µM | GI50 [30]: 14.2 µM | TGI [30]: 27.4 µM | GI50 [31]: 2.51 µM | TGI [31]: 5.33 µM | GI50 [32]: 12.8 µM | TGI [32]: 25.9 µM | GI50 [33]: 12.9 µM | TGI [33]: 25.7 µM | GI50 [34]: 8.23 µM | TGI [34]: 20.8 µM | GI50 [35]: 14.7 µM | TGI [35]: 28.1 µM | GI50 [36]: 10.7 µM | TGI [36]: 22.8 µM | GI50 [37]: 1.94 µM | TGI [37]: 3.66 µM | GI50 [38]: 10.9 µM | TGI [38]: 23.7 µM | GI50 [39]: 10.6 µM | TGI [39]: 22.8 µM | GI50 [40]: 6.11 µM | TGI [40]: 18.4 µM | GI50 [41]: 11.5 µM | TGI [41]: 24 µM | GI50 [42]: 1.97 µM | TGI [42]: 3.56 µM | GI50 [43]: 8.67 µM | TGI [43]: 21 µM | GI50 [44]: 2.2 µM | TGI [44]: 4.16 µM | GI50 [45]: 11.4 µM | TGI [45]: 23.7 µM | GI50 [46]: 12.9 µM | TGI [46]: 25.7 µM | GI50 [47]: 14.7 µM | TGI [47]: 28.1 µM | GI50 [48]: 1.93 µM | TGI [48]: 3.39 µM | GI50 [49]: 5.64 µM | TGI [49]: 19.7 µM

C=C1C(=O)OC(CCCCCCCC)C1C(=O)O (stereo not given)
GI50 [1]: 12.8 µM | TGI [1]: 26.2 µM | GI50 [50]: 3.03 µM | TGI [50]: 9.89 µM | GI50 [51]: 20.1 µM | TGI [51]: 34.9 µM | GI50 [52]: 18.3 µM | TGI [52]: 32.5 µM | GI50 [2]: 23.3 µM | TGI [2]: 46.8 µM | GI50 [3]: 19.4 µM | TGI [3]: 37.1 µM | GI50 [4]: 14.6 µM | TGI [4]: 28.2 µM | GI50 [5]: 21.1 µM | TGI [5]: 39.6 µM | GI50 [8]: 19 µM | TGI [8]: 36.1 µM | GI50 [9]: 23.3 µM | TGI [9]: 44 µM | GI50 [10]: 24.9 µM | TGI [10]: 54.9 µM | GI50 [53]: 17.1 µM | TGI [53]: 31.3 µM | GI50 [11]: 16.7 µM | TGI [11]: 31.6 µM | GI50 [54]: 20.6 µM | TGI [54]: 35.2 µM | GI50 [12]: 21 µM | TGI [12]: 39.1 µM | GI50 [13]: 3.04 µM | TGI [13]: 6.75 µM | GI50 [14]: 12.2 µM | TGI [14]: 25.5 µM | GI50 [15]: 14.6 µM | TGI [15]: 27.9 µM | GI50 [16]: 22.1 µM | TGI [16]: 45.5 µM | GI50 [17]: 33.9 µM | TGI [17]: > 100 µM | GI50 [18]: 27.9 µM | TGI [18]: 49.7 µM | GI50 [19]: 20.6 µM | TGI [19]: 37.9 µM | GI50 [20]: 22.3 µM | TGI [20]: 46.2 µM | GI50 [21]: 21.4 µM | TGI [21]: 39.3 µM | GI50 [23]: 28.7 µM | TGI [23]: 46.6 µM | GI50 [24]: 11.5 µM | TGI [24]: 24.1 µM | GI50 [25]: 14 µM | TGI [25]: 27.6 µM | GI50 [55]: 16.1 µM | TGI [55]: 32.1 µM | GI50 [56]: 22.4 µM | TGI [56]: 47.3 µM | GI50 [26]: 15.5 µM | TGI [26]: 29.2 µM | GI50 [27]: 18.7 µM | TGI [27]: 33.2 µM | GI50 [28]: 34.3 µM | TGI [28]: > 100 µM | GI50 [29]: 17.8 µM | TGI [29]: 34.5 µM | GI50 [57]: 12.2 µM | TGI [57]: 24.8 µM | GI50 [30]: 19.2 µM | TGI [30]: 37.4 µM | GI50 [32]: 17.4 µM | TGI [32]: 31.5 µM | GI50 [33]: 16.9 µM | TGI [33]: 32.1 µM | GI50 [34]: 16.5 µM | TGI [34]: 30.7 µM | GI50 [35]: 19.8 µM | TGI [35]: 41.1 µM | GI50 [36]: 14.8 µM | TGI [36]: 38.3 µM | GI50 [37]: 10.3 µM | TGI [37]: 22.1 µM | GI50 [58]: 23.5 µM | TGI [58]: 57.5 µM | GI50 [38]: 20.9 µM | TGI [38]: 41.8 µM | GI50 [39]: 23.6 µM | TGI [39]: 45.2 µM | GI50 [40]: 24.3 µM | TGI [40]: 50.3 µM | GI50 [41]: 30.3 µM | TGI [41]: > 100 µM | GI50 [42]: 12.7 µM | TGI [42]: 27.3 µM | GI50 [59]: 19 µM | TGI [59]: 37 µM | GI50 [43]: 39.3 µM | TGI [43]: > 100 µM | GI50 [60]: 25.5 µM | TGI [60]: 40.4 µM | GI50 [44]: 23.4 µM | TGI [44]: 49.4 µM | GI50 [45]: 6.51 µM | TGI [45]: 19.2 µM | GI50 [46]: 12.9 µM | TGI [46]: 28.6 µM | GI50 [47]: 20.4 µM | TGI [47]: 37.7 µM | GI50 [48]: 13.5 µM | TGI [48]: 26.4 µM | GI50 [49]: 18.2 µM | TGI [49]: 32.3 µM
